In assay [1] the target is T1, BRM (Homo sapiens, UniProt P51531).
T1 construct: made in house; host or cells: High Five insect cells
As to the kind of experiment: ATPase catalytic activity assay (ADP-Glo), BRM. The assay is classed as biochemical. The conditions noted are these: Table 10; for Ratio (BRG1 IC50 (μM) divided by BRM IC50 (μM)): ATPase assay, selectivity BRG1/BRM; for IC50: ATPase catalytic activity assay (ADP-Glo). The gist of the method:
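Reaction holds 30 nM BRM, 20 nM salmon sperm DNA and 400 μM ATP in 20 mM Tris pH 8, 20 mM MgCl2, 50 mM NaCl, 0.1% Tween-20, 1 mM DTT. Incubated 1 h at room temperature. ADP formed is detected by ADP-Glo luminescence.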
On the technique in general: In ADP-Glo the light output rises with the ADP produced.

Assay [2] deals with T2, BRG-1 (Homo sapiens, UniProt P51532).
T2 construct: made in house; host or cells: High Five insect cells
T2 sequence (P51532 whole entry): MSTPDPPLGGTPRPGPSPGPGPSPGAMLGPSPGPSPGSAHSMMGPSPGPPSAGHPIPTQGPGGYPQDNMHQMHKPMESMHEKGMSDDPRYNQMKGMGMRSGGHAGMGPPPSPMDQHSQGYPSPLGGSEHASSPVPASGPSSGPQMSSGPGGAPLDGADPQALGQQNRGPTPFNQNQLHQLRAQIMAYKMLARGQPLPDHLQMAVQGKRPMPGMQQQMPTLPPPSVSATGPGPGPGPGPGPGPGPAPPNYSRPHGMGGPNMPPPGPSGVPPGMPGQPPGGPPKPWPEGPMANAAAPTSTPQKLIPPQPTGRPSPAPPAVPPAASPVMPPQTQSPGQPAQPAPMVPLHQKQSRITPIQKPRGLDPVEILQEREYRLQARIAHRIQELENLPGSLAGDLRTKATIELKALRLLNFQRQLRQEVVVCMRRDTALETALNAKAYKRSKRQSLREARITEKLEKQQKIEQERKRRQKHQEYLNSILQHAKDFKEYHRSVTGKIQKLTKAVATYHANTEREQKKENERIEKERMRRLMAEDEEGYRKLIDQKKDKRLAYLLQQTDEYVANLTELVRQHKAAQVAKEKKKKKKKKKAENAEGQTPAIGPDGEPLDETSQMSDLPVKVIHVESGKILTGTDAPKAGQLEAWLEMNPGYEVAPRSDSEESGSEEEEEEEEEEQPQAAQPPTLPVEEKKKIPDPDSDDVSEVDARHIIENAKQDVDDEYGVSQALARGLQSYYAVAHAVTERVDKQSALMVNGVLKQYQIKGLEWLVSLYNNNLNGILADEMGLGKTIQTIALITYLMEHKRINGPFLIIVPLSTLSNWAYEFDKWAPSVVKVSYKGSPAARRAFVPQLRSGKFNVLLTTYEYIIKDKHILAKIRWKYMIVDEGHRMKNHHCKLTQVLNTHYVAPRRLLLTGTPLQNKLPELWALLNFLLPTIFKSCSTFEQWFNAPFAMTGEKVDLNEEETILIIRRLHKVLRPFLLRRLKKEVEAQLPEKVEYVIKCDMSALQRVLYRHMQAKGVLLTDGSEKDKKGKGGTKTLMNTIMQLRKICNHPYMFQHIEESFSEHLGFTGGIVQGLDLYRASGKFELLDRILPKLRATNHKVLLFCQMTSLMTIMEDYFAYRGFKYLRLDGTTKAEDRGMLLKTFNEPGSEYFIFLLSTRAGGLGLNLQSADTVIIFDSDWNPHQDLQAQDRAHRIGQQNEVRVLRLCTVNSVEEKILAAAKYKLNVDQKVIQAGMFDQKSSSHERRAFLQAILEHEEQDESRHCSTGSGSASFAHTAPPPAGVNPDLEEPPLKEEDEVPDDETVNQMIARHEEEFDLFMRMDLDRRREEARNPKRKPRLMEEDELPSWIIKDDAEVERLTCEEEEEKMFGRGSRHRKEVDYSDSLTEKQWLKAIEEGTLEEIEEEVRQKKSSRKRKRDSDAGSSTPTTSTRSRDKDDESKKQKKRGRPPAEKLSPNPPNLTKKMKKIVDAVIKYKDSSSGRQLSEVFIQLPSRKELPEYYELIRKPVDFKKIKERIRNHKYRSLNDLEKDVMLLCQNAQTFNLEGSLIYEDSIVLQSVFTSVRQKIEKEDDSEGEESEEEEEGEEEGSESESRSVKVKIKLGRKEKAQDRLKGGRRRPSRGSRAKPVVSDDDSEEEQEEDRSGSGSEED
The assay can be described thus: ATPase catalytic activity assay (ADP-Glo), BRG-1. It is filed as biochemical. The conditions noted are these: Table 10, read-out: BRG1 IC50. The method in brief: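 BRG-1 ATPase activity was measured by ADP-Glo. Unconsumed ATP was depleted for 40 min at room temperature, then ADP was converted to ATP for 60 min and read as luminescence.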

Each structure is given as a SMILES string.

The results in this text go back to patent publication US12139487B2, “Compounds and uses thereof” (Foghorn Therapeutics Inc., priority 2022, dated 2024).

T1 sequence (P51531 whole entry): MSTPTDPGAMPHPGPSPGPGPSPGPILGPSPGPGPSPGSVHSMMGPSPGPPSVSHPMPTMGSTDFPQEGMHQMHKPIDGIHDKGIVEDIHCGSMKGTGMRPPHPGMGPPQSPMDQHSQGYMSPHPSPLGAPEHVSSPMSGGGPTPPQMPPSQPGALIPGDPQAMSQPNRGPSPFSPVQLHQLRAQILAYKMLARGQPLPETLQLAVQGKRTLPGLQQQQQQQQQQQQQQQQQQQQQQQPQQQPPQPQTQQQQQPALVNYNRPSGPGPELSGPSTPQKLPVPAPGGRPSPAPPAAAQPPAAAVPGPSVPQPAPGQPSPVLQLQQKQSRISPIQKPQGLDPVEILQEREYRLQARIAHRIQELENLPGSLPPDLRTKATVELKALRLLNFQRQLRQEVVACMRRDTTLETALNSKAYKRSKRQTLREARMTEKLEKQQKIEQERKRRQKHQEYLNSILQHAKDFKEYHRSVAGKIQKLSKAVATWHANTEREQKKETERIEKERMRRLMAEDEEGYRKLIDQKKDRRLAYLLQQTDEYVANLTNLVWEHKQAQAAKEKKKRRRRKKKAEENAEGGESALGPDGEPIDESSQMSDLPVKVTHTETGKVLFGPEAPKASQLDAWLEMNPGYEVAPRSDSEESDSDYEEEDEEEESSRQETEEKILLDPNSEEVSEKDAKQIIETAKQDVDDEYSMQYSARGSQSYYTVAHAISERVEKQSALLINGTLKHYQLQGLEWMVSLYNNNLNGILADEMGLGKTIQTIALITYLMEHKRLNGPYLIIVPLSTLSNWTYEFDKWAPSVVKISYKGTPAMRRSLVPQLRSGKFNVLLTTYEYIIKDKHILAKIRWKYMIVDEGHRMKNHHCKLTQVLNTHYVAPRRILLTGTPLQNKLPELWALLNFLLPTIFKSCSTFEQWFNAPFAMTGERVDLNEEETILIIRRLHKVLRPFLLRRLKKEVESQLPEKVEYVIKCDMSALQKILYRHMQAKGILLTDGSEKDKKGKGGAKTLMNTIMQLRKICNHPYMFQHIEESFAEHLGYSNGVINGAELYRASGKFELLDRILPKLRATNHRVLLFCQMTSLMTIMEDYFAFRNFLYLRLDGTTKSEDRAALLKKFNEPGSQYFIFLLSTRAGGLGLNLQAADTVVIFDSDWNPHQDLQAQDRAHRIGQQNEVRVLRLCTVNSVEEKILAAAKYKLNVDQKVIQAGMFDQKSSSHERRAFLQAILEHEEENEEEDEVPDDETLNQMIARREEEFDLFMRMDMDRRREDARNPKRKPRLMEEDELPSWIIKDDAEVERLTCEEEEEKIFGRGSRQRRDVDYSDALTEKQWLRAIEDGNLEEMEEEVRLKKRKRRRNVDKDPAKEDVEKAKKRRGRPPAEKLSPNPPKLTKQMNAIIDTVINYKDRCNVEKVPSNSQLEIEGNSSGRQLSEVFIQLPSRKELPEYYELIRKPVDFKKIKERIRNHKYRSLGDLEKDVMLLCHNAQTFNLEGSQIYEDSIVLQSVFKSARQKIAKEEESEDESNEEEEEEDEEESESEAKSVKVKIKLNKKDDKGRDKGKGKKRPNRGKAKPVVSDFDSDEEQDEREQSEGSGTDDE

For orientation: IC50 means the concentration that gives 50% inhibition. In the case of `Cc1cc(C(=O)NCc2cc3nc(-c4ccc(OC(F)F)c(C5CC5)n4)ccc3cn2)cc2c1OCC[C@H](F)S2(=O)=O` [Compound 324], in assay [1], the “Ratio (BRG1 IC50 (μM) divided by BRM IC50 (μM))” value was determined as 22.15. Besides, the values for the IC50 in assay [1] and in assay [2] were 16.1 nM and 357 nM, respectively.
Regarding `COc1nc(C(F)F)ccc1-c1ccc2cnc(CNC(=O)c3cc(F)c4c(c3)S(=O)(=O)[C@@H](F)COC4)c(F)c2n1` [Compound 167], the “Ratio (BRG1 IC50 (μM) divided by BRM IC50 (μM))” value in assay [1] turned out to be 10.82. Also, the IC50 in assay [1] was determined as 5.3 nM; in assay [2], 56.7 nM.
Take `C[C@@H]1CN(c2nccc(-c3ccc4cnc(CNC(=O)c5cc(F)c6c(c5)S(=O)(=O)[C@@H](F)CCO6)cc4c3)n2)C[C@H](C)O1` [Compound 16]: in assay [1], the “Ratio (BRG1 IC50 (μM) divided by BRM IC50 (μM))” value is on record as 10.27 and half-maximal inhibition (IC50) was put at 1.5 nM. Moreover, in assay [2], the IC50 was found to be 17.8 nM.
Turning to `CC1CN(c2ccnc3c2OCCN3c2ccc3cnc(CNC(=O)c4cc(F)c5c(c4)S(=O)(=O)[C@@H](F)CCO5)cc3n2)C1` [Compound 263], in assay [1], the “Ratio (BRG1 IC50 (μM) divided by BRM IC50 (μM))” value is listed as 10.51 and the IC50 turned out to be 8.5 nM. The IC50 in assay [2] turned out to be 89.7 nM.
The like results for `C[C@@H]1CN(c2cccc(-c3ccc4cnc(CNC(=O)c5ccc6c(c5)S(=O)(=O)[C@@H](F)CN(C)C6)cc4n3)n2)C[C@H](C)O1` [Compound 1, (R)—N-((2-(6-((2S,6R)-2,6-dimethylmorpholino)pyridin-2-yl)-1,6-naphthyridin-7-yl)methyl)-2-fluoro-4-methyl-2,3,4,5-tetrahydrobenzo[f][1,4]thiazepine-8-carboxamide 1,1-dioxide] were, in that order, 7.29, 2.9 nM and 21.4 nM.
Taken in the same sequence, the figures for `O=C(NCc1cc2nc(N3CCOc4ccc(N5CC[C@H](F)C5)nc43)ccc2cn1)c1cc(F)c2c(c1)S(=O)(=O)[C@@H](F)CCO2` [Compound 57] were 17.61, 2.5 nM and 36.8 nM.
With `COc1nc([C@](C)(F)C(F)F)ccc1-c1ccc2cnc(CNC(=O)c3ccc4c(c3)S(=O)(=O)[C@@H](F)CCOC4)cc2n1` [Compound 43], the IC50 is 2 nM in assay [1] and 40.6 nM in assay [2].
As for `O=C(NCc1cc2nc(N3CCOc4ccc([C@@H]5C[C@H]5F)nc43)ccc2cn1)c1cc(F)c2c(c1)S(=O)(=O)[C@@H](F)CCO2` [Compound 156], in assay [1], the “Ratio (BRG1 IC50 (μM) divided by BRM IC50 (μM))” value is recorded as 23.13 and the concentration for half-maximal inhibition (IC50) stood at 5 nM. Also, in assay [2], the IC50 stood at 97 nM.
`O=C(NCc1cc2nc(N3CCCc4sc(C(F)F)nc43)ccc2cn1)c1cc(F)c2c(c1)S(=O)(=O)[C@@H](F)CCO2` [Compound 217]: in assay [1], the “Ratio (BRG1 IC50 (μM) divided by BRM IC50 (μM))” value was 9.68 and the IC50 stood at 6.5 nM. Further, in assay [2], the IC50 is 63.4 nM.
Taken in the same sequence, the figures for `COc1nc(C)ccc1-c1ccc2cnc(CNC(=O)c3cc(F)c4c(c3)S(=O)(=O)[C@@H](F)CCO4)cc2n1` [Compound 193] were 16.06, 5.9 nM and 110 nM.
The like results for `COc1nc(C(F)F)ccc1-c1ccc2cnc(CNC(=O)c3cc(F)c4c(c3)S(=O)(=O)[C@@H](F)COC4)cc2n1` [Compound 53] were, in that order, 19.48, 2.5 nM and 54.3 nM.
Taken in the same sequence, the figures for `C[C@H]1OC[C@H](F)S(=O)(=O)c2cc(C(=O)NCc3cc4nc(N5CCOc6cc(C7CC7)cnc65)ccc4cn3)ccc21` [Compound 162] were 17.63, 11.3 nM and 221 nM.
Regarding `C[C@H](NC(=O)c1cc(F)c2c(c1)S(=O)(=O)[C@@H](F)CCO2)c1cc2nc(N3CCOc4cc(N5CCC5)cnc43)ccc2cn1` [Compound 261], in assay [1], the “Ratio (BRG1 IC50 (μM) divided by BRM IC50 (μM))” value amounted to 25.34. Moreover, the IC50 in assay [1] was found to be 8.5 nM; in assay [2] it was 242 nM.
For the compound `CCOc1ccnc2c1OCCN2c1ccc2cnc(CNC(=O)c3cc(F)c4c(c3)S(=O)(=O)[C@@H](F)CCO4)cc2n1` [Compound 129], in assay [1], the “Ratio (BRG1 IC50 (μM) divided by BRM IC50 (μM))” value was determined as 18.60 and the IC50 turned out to be 4.5 nM. Besides, in assay [2], the IC50 came out at 111 nM.
Taken in the same sequence, the figures for `[2H]C([2H])([2H])Oc1nc(C(F)F)ccc1-c1ccc2cnc(CNC(=O)c3cc(F)c4c(c3)S(=O)(=O)[C@@H](F)CCO4)cc2n1` [Compound 135] were 23.88, 4.6 nM and 110 nM.
The like results for `O=C(NCc1cc2nc(N3CCOc4cc(N5C[C@@H](F)[C@H](F)C5)cnc43)ccc2cn1)c1cc(Cl)c2c(c1)S(=O)(=O)[C@@H](F)COC2` [Compound 121] were, in that order, 13.86, 4.1 nM and 56.7 nM.
The like results for `O=C(NCc1cc2nc(N3CCOc4cc(C5CC5)cnc43)ccc2cn1)c1cc(F)c2c(c1)S(=O)(=O)[C@@H](F)COC2` [Compound 8] were, in that order, 14.89, 1.3 nM and 22.3 nM.
For the compound `O=C(NCc1cc2nc(-c3ccnc(N4CCC4)n3)ccc2cn1)c1cc(F)c2c(c1)S(=O)(=O)[C@@H](F)COC2` [Compound 228], in assay [1], the “Ratio (BRG1 IC50 (μM) divided by BRM IC50 (μM))” value is 14.53 and the IC50 was 7.1 nM. Moreover, the IC50 in assay [2] was found to be 108 nM.
The like results for `O=C(NCc1cc2nc(-c3cccc(C4CC4)n3)ccc2cn1)c1cc(Cl)c2c(c1)S(=O)(=O)[C@@H](F)COC2` [Compound 302] were, in that order, 30.11, 10 nM and 348 nM.
The like results for `CN(C)c1cnc2c(c1)OCCN2c1ccc2cnc(CNC(=O)c3cc(F)c4c(c3)S(=O)(=O)[C@@H](F)COC4)cc2n1` [Compound 33] were, in that order, 11.17, 1.9 nM and 18.9 nM.
For the compound `O=C(NCc1cc2nc(-c3ccnc(C45CC(C4)C5)n3)ccc2cn1)c1cc(F)c2c(c1)S(=O)(=O)[C@@H](F)COC2` [Compound 290], the “Ratio (BRG1 IC50 (μM) divided by BRM IC50 (μM))” value in assay [1] came out at 17.27. Also, the results for the IC50 in assay [1] and in assay [2] were 9.6 nM and 187 nM, respectively.
Taken in the same sequence, the figures for `CCOc1nc(C(F)F)ccc1-c1ccc2cnc(CNC(=O)c3cc(F)c4c(c3)S(=O)(=O)[C@@H](F)CCO4)cc2n1` [Compound 151] were 16.49, 4.9 nM and 76.6 nM.
As for `O=C(NCc1cc2nc(N3CCOc4ccc(C5CC5)nc43)ccc2cn1)c1ccc2c(c1)S(=O)(=O)[C@@H](F)COC2` [Compound 39], the “Ratio (BRG1 IC50 (μM) divided by BRM IC50 (μM))” value in assay [1] was determined as 13.44. In addition, the IC50 came to 2 nM in assay [1] and 24.6 nM in assay [2].
Take `C#Cc1ccc2c(n1)N(c1ccc3cnc(CNC(=O)c4cc(F)c5c(c4)S(=O)(=O)[C@@H](F)CCO5)cc3n1)CCO2` [Compound 110]: the “Ratio (BRG1 IC50 (μM) divided by BRM IC50 (μM))” value in assay [1] was 15.35. The IC50 stood at 3.9 nM in assay [1] and 69.4 nM in assay [2].
Taken in the same sequence, the figures for `O=C(NCc1cc2nc(-c3ccc(OC(F)F)c(C4CC4)n3)ccc2cn1)c1cc(F)c2c(c1)S(=O)(=O)[C@@H](F)CCO2` [Compound 89] were 28.75, 3.2 nM and 132 nM.
Consider `CO[C@H]1C[C@H]1c1cnc2c(c1)OCCN2c1ccc2cnc(CNC(=O)c3cc(F)c4c(c3)S(=O)(=O)[C@@H](F)CCO4)cc2n1` [Compound 45], for which the “Ratio (BRG1 IC50 (μM) divided by BRM IC50 (μM))” value in assay [1] amounted to 12.59. For the same compound, the IC50 came out at 2.1 nM in assay [1] and 25.8 nM in assay [2].
As for `O=C(NCc1cc2nc(N3CCCc4c(OC(F)F)ccnc43)ccc2cn1)c1cc(F)c2c(c1)S(=O)(=O)[C@@H](F)CCO2` [Compound 169], in assay [1], the “Ratio (BRG1 IC50 (μM) divided by BRM IC50 (μM))” value was found to be 10.91 and half-maximal inhibition (IC50) was put at 5.3 nM. The IC50 in assay [2] came out at 58.3 nM.
The like results for `COCCOc1ccnc2c1CCCN2c1ccc2cnc(CNC(=O)c3cc(F)c4c(c3)S(=O)(=O)[C@@H](F)CCO4)cc2n1` [Compound 189] were, in that order, 16.84, 5.8 nM and 107 nM.
As to `O=C(NCc1cc2nc(N3CCOc4cc(N5CC(F)C5)cnc43)ccc2cn1)c1cc(F)c2c(c1)S(=O)(=O)[C@@H](F)COC2` [Compound 30], in assay [1], the “Ratio (BRG1 IC50 (μM) divided by BRM IC50 (μM))” value was determined as 19.40 and the midpoint of inhibition, the IC50, lay at 1.8 nM. Moreover, the IC50 in assay [2] was 39.1 nM.
The like results for `O=C(NCc1cc2nc(-c3cccc(OC(F)F)n3)ccc2cn1)c1cc(Cl)c2c(c1)S(=O)(=O)[C@@H](F)CCO2` [Compound 225] were, in that order, 49.95, 7.1 nM and 461 nM.
As for `COCc1cnc2c(c1)OCCN2c1ccc2cnc(CNC(=O)c3cc(F)c4c(c3)S(=O)(=O)[C@@H](F)CCO4)cc2n1` [Compound 224], in assay [1], the “Ratio (BRG1 IC50 (μM) divided by BRM IC50 (μM))” value was 15.91 and it took 7.1 nM to reach half-maximal inhibition (IC50). Also, the IC50 in assay [2] worked out at 115 nM.
Regarding `O=C(NCc1cc2nc(N3CCOc4ccc(C5CC5)nc43)ccc2cn1)c1cc(F)c2c(c1)S(=O)(=O)[C@@H](F)CCO2` [Compound 55], in assay [1], the “Ratio (BRG1 IC50 (μM) divided by BRM IC50 (μM))” value was determined as 35.69 and the IC50 was 2.5 nM. In assay [2], the IC50 was 124 nM.
For the compound `Cc1cc(C(=O)NCc2cc3nc(-c4cccc(N5C[C@@H](C)O[C@@H](C)C5)n4)ccc3cn2)cc2c1COC[C@H](F)S2(=O)=O` [Compound 21], the “Ratio (BRG1 IC50 (μM) divided by BRM IC50 (μM))” value in assay [1] is on record as 16.50. The IC50 in assay [1] is 1.6 nM; in assay [2], 28.3 nM.
In the case of `[2H]C1([2H])OC([2H])([2H])[C@H](F)S(=O)(=O)c2cc(C(=O)NCc3cc4nc(N5CCOc6ccc(C(F)F)nc65)ccc4cn3)cc(F)c21` [Compound 163], the IC50 was 5.2 nM in assay [1] and 116 nM in assay [2].
